Assay results from ChEMBL document CHEMBL5465560, “Selectivity Literature for EUbOPEN Chemogenomic Library” (2024).

Key:
[1] = biological target: T1, Serine/threonine-protein kinase ULK3 (Homo sapiens) (UniProt Q6PHR2); test: Selectivity interaction (KinomeScan (DiscoverX)) EUB0000695a ULK3; details: at 100 nM
T1 sequence (whole entry): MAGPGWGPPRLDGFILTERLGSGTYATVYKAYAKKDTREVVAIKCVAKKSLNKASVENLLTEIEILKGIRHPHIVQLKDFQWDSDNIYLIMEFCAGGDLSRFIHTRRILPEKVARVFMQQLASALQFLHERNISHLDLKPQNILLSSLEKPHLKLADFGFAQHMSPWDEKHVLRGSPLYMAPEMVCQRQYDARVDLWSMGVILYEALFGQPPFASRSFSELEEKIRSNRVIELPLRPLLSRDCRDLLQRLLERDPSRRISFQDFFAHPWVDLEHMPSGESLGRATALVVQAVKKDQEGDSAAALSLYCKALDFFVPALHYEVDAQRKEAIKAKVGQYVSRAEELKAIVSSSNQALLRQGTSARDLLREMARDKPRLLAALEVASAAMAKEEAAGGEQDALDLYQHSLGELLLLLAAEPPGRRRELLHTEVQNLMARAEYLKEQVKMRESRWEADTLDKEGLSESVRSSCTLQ

[2] = biological target: Mitogen-activated protein kinase kinase kinase 11 (Homo sapiens) (UniProt Q16584); test: Selectivity interaction (KinomeScan (DiscoverX)) EUB0000695a MAP3K11; details: at 100 nM
[3] = biological target: Sodium-dependent serotonin transporter (Homo sapiens, UniProt P31645); test: Selectivity interaction (GPCR panel (PDSP screen)) EUB0001079a SLC6A4; details: at 10 µM
[4] = biological target: Phosphatidylinositol 3-kinase catalytic subunit type 3 (Homo sapiens, UniProt Q8NEB9); test: Selectivity interaction (KinomeScan (DiscoverX)) EUB0001079a PIK3C3; details: at 1 µM
[5] = biological target: Epidermal growth factor receptor (Homo sapiens, UniProt P00533); test: Selectivity interaction (Rxn Biology Kinase assay) EUB0001632a EGFR; details: at 10 µM
[6] = system: Tyrosine-protein kinase ABL1 (Homo sapiens), P00519 [F317L]; details: at 10 µM
[7] = biological target: Ribosomal protein S6 kinase alpha-5 (Homo sapiens) (UniProt O75582); test: Selectivity interaction (Kinase screening (Nanosyn)) EUB0000604a RPS6KA5
[8] = biological target: CDK6/cyclin D2 (Homo sapiens) (UniProt Q00534+P30279); test: Selectivity interaction (Millipore kinase profiler) EUB0000124b CDK6; assay type: protein-complex assay; details: at 10 µM
[9] = biological target: Calcium/calmodulin-dependent protein kinase type 1 (Homo sapiens) (UniProt Q14012); test: Selectivity interaction (Upstate Kinase Profiler service (Millipore)) EUB0000056c CAMK1; details: at 1 µM
[10] = biological target: Ribosomal protein S6 kinase alpha-5 (Homo sapiens) (UniProt O75582); test: Selectivity interaction (Upstate Kinase Profiler service (Millipore)) EUB0000056c RPS6KA5; details: at 1 µM
[11] = biological target: Serine/threonine-protein kinase 25 (Homo sapiens) (UniProt O00506); test: Selectivity interaction (KinomeScan (DiscoverX)) EUB0001619a STK25; details: at 1 µM
[12] = biological target: Ephrin type-A receptor 2 (Homo sapiens) (UniProt P29317); test: Selectivity interaction (KinomeScan (DiscoverX)) EUB0001619a EPHA2; details: at 1 µM
[13] = biological target: T2, Mitogen-activated protein kinase kinase kinase 3 (Homo sapiens) (UniProt Q99759); test: Selectivity interaction (ActivX KiNativ screen (ex vivo kinase selectivity in human PBMCs)) EUB0001619a MAP3K3; assay type: cell-based; details: PBMC, at 1 µM
T2 sequence (whole entry): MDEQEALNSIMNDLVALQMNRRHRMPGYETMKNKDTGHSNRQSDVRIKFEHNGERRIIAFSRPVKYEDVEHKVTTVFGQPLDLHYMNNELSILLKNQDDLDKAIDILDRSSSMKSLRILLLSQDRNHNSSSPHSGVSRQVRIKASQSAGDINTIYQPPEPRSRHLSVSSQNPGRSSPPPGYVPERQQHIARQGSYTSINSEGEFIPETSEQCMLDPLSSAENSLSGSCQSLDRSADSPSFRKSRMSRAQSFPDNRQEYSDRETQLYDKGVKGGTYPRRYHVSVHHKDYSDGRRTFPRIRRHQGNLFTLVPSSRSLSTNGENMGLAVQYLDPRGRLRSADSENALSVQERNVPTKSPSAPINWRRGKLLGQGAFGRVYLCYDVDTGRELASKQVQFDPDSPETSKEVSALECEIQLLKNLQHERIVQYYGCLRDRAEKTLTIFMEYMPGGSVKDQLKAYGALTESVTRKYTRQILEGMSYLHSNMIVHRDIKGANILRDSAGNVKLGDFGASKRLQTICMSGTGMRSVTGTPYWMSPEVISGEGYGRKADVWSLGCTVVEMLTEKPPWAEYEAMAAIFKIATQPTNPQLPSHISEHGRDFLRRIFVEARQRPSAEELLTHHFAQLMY

[14] = biological target: T3, Inhibitor of nuclear factor kappa-B kinase subunit epsilon (Homo sapiens) (UniProt Q14164); test: Selectivity interaction (ActivX KiNativ screen (kinase selectivity in THP-1 cell lysates)) EUB0000639a IKBKE; assay type: subcellular; details: lysate, at 0.04 µM
T3 sequence (whole entry): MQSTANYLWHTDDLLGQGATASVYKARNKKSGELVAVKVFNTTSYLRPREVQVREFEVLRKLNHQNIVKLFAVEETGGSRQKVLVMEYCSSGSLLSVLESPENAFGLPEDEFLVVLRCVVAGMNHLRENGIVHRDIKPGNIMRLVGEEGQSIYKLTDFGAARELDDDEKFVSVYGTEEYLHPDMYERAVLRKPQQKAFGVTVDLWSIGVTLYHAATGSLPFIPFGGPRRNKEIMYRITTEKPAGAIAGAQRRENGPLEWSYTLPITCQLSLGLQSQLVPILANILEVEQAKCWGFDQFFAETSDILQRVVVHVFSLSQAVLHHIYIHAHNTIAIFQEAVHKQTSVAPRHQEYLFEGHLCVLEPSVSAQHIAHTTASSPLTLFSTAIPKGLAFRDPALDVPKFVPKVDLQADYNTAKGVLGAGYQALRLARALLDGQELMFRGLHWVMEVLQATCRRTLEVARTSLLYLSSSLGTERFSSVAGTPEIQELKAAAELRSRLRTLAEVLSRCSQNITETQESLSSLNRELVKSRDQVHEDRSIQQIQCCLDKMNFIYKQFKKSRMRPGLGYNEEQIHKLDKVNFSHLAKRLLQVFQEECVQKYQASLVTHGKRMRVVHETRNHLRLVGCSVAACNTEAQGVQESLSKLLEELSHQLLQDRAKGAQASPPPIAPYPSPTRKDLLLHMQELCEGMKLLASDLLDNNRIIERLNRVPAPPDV

[15] = biological target: Serine/threonine-protein kinase 38 (Homo sapiens) (UniProt Q15208); test: Selectivity interaction (ActivX KiNativ screen (kinase selectivity in THP-1 cell lysates)) EUB0000639a STK38; assay type: subcellular; details: lysate, at 5 µM
[16] = biological target: Mitogen-activated protein kinase kinase kinase 4 (Homo sapiens) (UniProt Q9Y6R4); test: Selectivity interaction (KinomeScan (DiscoverX)) EUB0000655a MAP3K4; details: at 10 µM
[17] = biological target: Ribosomal protein S6 kinase alpha-4 (Homo sapiens) (UniProt O75676); details: at 10 µM

Sequence of Ribosomal protein S6 kinase alpha-5 (Homo sapiens) (O75582 whole entry, looked up): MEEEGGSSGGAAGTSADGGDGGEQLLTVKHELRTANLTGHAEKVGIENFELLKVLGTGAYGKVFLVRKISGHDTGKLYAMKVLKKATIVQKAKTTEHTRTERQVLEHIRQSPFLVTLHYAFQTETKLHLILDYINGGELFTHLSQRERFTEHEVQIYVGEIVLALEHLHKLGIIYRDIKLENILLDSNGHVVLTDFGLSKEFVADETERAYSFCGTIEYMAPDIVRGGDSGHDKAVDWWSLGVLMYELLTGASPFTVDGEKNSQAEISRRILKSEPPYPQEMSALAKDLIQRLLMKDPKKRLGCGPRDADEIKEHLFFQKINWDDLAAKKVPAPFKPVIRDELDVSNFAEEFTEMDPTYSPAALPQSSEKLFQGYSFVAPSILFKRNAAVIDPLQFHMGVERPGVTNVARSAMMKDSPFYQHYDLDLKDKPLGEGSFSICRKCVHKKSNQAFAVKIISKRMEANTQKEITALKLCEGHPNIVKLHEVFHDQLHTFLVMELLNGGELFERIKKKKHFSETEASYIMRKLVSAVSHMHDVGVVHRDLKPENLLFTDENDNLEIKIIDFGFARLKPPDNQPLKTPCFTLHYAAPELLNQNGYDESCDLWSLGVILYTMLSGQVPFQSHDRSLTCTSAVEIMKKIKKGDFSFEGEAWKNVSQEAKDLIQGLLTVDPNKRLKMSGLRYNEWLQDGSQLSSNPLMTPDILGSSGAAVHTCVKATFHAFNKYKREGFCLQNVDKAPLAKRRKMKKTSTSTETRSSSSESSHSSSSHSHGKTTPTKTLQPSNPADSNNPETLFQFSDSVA
Sequence of Epidermal growth factor receptor (P00533 whole entry): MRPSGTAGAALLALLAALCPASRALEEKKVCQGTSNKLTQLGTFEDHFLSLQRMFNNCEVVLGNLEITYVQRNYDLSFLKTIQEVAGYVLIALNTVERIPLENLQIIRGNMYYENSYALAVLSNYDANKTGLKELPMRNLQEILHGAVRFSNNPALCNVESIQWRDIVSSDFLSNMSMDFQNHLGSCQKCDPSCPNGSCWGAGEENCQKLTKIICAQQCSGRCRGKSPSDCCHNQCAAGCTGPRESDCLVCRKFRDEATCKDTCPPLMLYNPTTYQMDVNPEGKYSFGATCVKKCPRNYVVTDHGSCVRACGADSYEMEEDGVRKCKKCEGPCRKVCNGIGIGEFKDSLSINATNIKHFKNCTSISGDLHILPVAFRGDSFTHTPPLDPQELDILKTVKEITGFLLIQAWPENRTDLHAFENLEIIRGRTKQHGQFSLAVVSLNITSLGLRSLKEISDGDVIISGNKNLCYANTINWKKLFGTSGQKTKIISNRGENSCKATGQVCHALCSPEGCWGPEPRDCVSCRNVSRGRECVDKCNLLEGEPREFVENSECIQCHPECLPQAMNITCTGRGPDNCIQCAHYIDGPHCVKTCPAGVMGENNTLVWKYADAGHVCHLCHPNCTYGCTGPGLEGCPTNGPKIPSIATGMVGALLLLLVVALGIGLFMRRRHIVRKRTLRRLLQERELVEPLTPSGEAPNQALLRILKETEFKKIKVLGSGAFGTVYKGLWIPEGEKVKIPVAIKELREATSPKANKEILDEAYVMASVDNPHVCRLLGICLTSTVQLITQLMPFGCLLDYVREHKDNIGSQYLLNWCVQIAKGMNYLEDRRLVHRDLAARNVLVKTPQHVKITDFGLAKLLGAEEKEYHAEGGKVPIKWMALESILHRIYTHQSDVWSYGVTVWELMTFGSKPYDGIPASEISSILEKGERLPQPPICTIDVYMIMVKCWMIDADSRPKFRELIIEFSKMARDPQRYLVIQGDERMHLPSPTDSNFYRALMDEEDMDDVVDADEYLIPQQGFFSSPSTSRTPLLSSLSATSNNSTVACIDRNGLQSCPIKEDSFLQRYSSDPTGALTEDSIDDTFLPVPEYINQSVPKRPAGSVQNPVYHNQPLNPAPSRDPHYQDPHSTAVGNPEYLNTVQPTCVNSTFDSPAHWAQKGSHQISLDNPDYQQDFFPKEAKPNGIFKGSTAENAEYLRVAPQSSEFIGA
Sequence of Ephrin type-A receptor 2 (Homo sapiens) (P29317 whole entry): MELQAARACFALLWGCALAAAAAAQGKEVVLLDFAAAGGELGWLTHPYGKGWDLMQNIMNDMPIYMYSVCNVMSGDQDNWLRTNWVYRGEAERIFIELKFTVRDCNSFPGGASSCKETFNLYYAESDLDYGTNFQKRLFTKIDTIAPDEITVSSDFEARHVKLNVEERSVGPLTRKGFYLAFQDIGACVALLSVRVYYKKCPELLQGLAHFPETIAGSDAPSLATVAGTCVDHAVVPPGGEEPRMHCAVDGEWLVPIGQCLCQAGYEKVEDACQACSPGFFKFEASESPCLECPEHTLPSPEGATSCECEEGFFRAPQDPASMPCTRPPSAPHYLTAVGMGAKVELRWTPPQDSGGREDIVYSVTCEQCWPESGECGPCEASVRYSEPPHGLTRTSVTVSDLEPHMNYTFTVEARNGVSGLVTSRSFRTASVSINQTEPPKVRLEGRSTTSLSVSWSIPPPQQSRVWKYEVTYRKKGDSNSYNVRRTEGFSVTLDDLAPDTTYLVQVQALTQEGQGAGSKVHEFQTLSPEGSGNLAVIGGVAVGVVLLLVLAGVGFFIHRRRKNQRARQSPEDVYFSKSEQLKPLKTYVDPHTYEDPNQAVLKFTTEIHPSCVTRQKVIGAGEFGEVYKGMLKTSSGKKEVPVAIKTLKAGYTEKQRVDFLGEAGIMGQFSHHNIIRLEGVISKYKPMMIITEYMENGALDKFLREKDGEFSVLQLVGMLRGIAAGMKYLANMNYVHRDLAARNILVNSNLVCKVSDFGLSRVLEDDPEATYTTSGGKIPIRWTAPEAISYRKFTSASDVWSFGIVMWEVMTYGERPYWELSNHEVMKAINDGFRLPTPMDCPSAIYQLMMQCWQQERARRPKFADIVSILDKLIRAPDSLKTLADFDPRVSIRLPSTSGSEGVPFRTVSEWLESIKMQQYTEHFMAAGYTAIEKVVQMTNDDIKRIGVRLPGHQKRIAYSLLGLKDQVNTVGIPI
Sequence of Phosphatidylinositol 3-kinase catalytic subunit type 3 (Q8NEB9 whole entry): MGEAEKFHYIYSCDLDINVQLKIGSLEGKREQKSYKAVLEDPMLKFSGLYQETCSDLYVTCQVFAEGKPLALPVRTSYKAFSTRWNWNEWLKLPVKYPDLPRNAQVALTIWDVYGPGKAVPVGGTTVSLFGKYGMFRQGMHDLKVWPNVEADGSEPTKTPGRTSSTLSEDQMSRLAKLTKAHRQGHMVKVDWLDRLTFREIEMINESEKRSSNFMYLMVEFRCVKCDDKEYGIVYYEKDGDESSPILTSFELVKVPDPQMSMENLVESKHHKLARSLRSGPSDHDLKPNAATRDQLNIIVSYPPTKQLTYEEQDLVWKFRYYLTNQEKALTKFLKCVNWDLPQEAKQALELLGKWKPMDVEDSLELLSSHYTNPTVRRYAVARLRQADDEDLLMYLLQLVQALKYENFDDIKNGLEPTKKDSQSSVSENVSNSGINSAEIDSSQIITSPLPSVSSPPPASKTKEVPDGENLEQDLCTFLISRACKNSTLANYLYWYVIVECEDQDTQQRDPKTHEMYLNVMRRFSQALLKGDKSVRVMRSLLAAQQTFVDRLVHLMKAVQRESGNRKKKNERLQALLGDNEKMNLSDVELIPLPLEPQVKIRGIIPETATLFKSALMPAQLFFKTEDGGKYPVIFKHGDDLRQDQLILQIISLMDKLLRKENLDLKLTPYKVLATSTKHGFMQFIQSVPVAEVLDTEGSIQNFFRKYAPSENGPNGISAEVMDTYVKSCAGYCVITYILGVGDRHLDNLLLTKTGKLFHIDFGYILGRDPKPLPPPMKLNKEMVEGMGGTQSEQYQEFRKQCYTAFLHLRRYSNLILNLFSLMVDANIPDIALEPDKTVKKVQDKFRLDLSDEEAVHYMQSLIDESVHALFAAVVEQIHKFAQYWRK
Sequence of Serine/threonine-protein kinase 25 (Homo sapiens) (O00506 whole entry, looked up): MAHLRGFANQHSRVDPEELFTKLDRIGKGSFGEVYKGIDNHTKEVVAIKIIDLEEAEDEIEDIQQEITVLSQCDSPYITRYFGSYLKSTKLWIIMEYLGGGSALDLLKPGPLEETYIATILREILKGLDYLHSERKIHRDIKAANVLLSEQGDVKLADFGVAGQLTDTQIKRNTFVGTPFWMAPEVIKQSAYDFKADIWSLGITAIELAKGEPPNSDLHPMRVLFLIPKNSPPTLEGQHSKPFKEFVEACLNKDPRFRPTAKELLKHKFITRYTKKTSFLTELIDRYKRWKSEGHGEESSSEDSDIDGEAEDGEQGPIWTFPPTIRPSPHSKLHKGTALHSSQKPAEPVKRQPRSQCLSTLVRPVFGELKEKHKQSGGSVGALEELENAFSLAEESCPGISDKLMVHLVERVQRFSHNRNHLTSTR
Sequence of Serine/threonine-protein kinase 38 (Homo sapiens) (Q15208 2-465 limits assumed): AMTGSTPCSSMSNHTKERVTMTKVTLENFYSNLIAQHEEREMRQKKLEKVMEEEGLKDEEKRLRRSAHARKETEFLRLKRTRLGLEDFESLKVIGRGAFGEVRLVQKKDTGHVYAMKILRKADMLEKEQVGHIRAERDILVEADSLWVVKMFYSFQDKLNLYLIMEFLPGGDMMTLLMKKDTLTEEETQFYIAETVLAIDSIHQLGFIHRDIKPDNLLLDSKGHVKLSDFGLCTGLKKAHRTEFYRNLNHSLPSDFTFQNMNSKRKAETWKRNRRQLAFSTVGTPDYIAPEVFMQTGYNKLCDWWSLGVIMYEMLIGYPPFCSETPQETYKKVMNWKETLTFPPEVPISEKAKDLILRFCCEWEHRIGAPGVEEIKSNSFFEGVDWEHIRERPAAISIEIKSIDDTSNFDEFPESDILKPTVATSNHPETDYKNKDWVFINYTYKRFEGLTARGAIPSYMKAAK

Cc1cc(F)c(C(=O)Nc2cccc(-c3nncn3C(C)C)n2)cc1-n1cnc(C2CC2)c1
% of control [1]: 80%
% of control [2]: 79%

Nc1cnc(N2CCc3cc(S(=O)(=O)Nc4c(F)cc(Cl)cc4F)cc(N4CCCC4=O)c32)nc1 [TP-020n]
% of inhibition [3]: 9.34%
% of control [4]: 100%

Cn1cc(-n2cnc3c(NCc4nc5cc(Cl)c(Cl)cc5[nH]4)nc(N4CCOCC4)nc32)cn1
% of inhibition [5]: 3.44%

Cc1cc([C@@H](C)Nc2ccccc2C(=O)O)c2nc(N3CCOCC3)cc(=O)n2c1 [AZD-6482]
% of control [6]: 87%

Cc1cnc(Nc2ccc(F)cc2Cl)nc1-c1c[nH]c(C(=O)N[C@H](CO)c2cccc(Cl)c2)c1
% of inhibition [7]: 7%

CC(=O)Nc1cccc(-n2c(=O)n(C3CC3)c(=O)c3c(Nc4ccc(I)cc4F)n(C)c(=O)c(C)c32)c1
% of control [8]: 107%

Cc1ccc(-c2ccc3c(ccc4sc5c(c43)NC[C@@H](C)NC5=O)n2)cn1
% of inhibition [9]: 2%
% of inhibition [10]: -9%

N#Cc1cccc(-c2c[nH]c3ncnc(N4CCOCC4)c23)c1
% of control [11]: 28%
% of control [12]: 100%
% of inhibition [13]: 13%

CC[C@@H]1[C@H](F)C(=O)N[C@@H]1COc1nccc2cc(C(N)=O)c(OC)cc12 [ZIMLOVISERTIB]
% of inhibition [14]: -22.2%
% of inhibition [15]: 87.9%

CN(C)CCOc1ccc(-c2nc(-c3ccncc3)c(-c3ccc4c(c3)CC/C4=N\O)[nH]2)cc1
% of control [16]: 83%

CCN(CC)CCCCNc1ncc2cc(-c3cc(OC)cc(OC)c3)c(NC(=O)NC(C)(C)C)nc2n1
% of control [17]: 100%
